How the values were obtained:
[1] = Reversal of P-glycoprotein mediated multidrug resistance in human KBV cells assessed as reversal of resistance to paclitaxel-induced cytotoxicity by measuring paclitaxel IC50 at 5 uM measured after 72 hrs by MTT assay
[2] = Reversal of P-glycoprotein mediated multidrug resistance in human KBV cells assessed as reversal of resistance to paclitaxel-induced cytotoxicity by measuring paclitaxel IC50 at 10 uM measured after 72 hrs by MTT assay
[3] = Reversal of P-glycoprotein mediated multidrug resistance in human KBV cells assessed as reversal of resistance to vincristine-induced cytotoxicity by measuring vincristine IC50 at 5 uM measured after 72 hrs by MTT assay
[4] = Reversal of P-glycoprotein mediated multidrug resistance in human KBV cells assessed as reversal of resistance to vincristine-induced cytotoxicity by measuring vincristine IC50 at 10 uM measured after 72 hrs by MTT assay
[5] = Reversal of P-glycoprotein mediated multidrug resistance in human MCF-7T cells assessed as reversal of resistance to paclitaxel-induced cytotoxicity by measuring paclitaxel IC50 at 5 uM measured after 72 hrs by MTT assay
[6] = Reversal of P-glycoprotein mediated multidrug resistance in human MCF-7T cells assessed as reversal of resistance to paclitaxel-induced cytotoxicity by measuring paclitaxel IC50 at 10 uM measured after 72 hrs by MTT assay
[7] = Reversal of P-glycoprotein mediated multidrug resistance in human MCF-7T cells assessed as reversal of resistance to vincristine-induced cytotoxicity by measuring vincristine IC50 at 5 uM measured after 72 hrs by MTT assay
[8] = Reversal of P-glycoprotein mediated multidrug resistance in human MCF-7T cells assessed as reversal of resistance to vincristine-induced cytotoxicity by measuring vincristine IC50 at 10 uM measured after 72 hrs by MTT assay

SMILES: COc1cc2c(cc1OC)CN(CCc1ccc(NC(=O)c3cc(OC)c(OC)cc3NC(=O)c3cnc4ccccc4c3)cc1)CC2
- IC50 [1]: 7.6 nM
- IC50 [2]: 4.5 nM
- IC50 [3]: 3.3 nM
- IC50 [4]: 2.1 nM
- IC50 [5]: 3.3 nM
- IC50 [6]: 0.26 nM
- IC50 [7]: 0.71 nM
- IC50 [8]: 0.22 nM

SMILES: CC1(C)CC[C@]2(C(=O)OCc3ccccc3)CC[C@]3(C)C(=CC[C@@H]4[C@@]5(C)Cc6nccnc6[C@@](C)(CO)[C@@H]5CC[C@]43C)[C@@H]2C1
- IC50 [1]: 59 nM
- IC50 [2]: 16 nM
- IC50 [3]: 17 nM
- IC50 [4]: 2.2 nM
- IC50 [5]: 13 nM
- IC50 [6]: 1.5 nM
- IC50 [7]: 6.9 nM
- IC50 [8]: 0.03 nM

SMILES: CC1(C)CC[C@]2(C(=O)OCc3ccccc3)CC[C@]3(C)C(=CC[C@@H]4[C@@]5(C)Cc6nccnc6[C@@](C)(COC(=O)CCC(=O)OCCOCCOCCOCCO)[C@@H]5CC[C@]43C)[C@@H]2C1
- IC50 [1]: 22 nM
- IC50 [2]: 4.6 nM
- IC50 [3]: 4 nM
- IC50 [4]: 0.79 nM
- IC50 [5]: 5.4 nM
- IC50 [6]: 0.89 nM
- IC50 [7]: 5.3 nM
- IC50 [8]: 0.04 nM
